This passage reports Kd and AC50 results from PMC12686454 (EMBO Molecular Medicine, 2025).

Each structure is given as a SMILES string. Structures can show the parent of a compound that is named as a salt.

For experiment [1], the target named is T1, enolase (AbEnolase) (Acinetobacter baumannii, UniProt A3M5Y1).
T1 construct: gene eno; wild-type enolase gene in pET-30a(+) with an N-terminal His6 tag, purified recombinant
Description: isothermal titration calorimetry ([…] °C, […] protein, […] ENOblock, single-site model, n = […]). Format: binding. In general terms: In ITC the heat of successive injections is recorded.

Experiment [2] deals with T2, E. coli ATCC 25922.
T2 construct: ATCC 25922
Nature of the experiment: microbe, parasite or virus in culture. More on the design: Bacterial growth inhibition, OD600, dose-response in 384-well plates, AC50. The note with it: Escherichia coli, ATCC25922, 24 h. As for the experimental part:
(§1) EU-OPENSCREEN provided a subset of 2,464 bioactive compounds from the ECBL pilot library (EU-OPENSCREEN: European Chemical Biology Library - Pilot Library) as 10 mM stock solutions in 100% DMSO. The library was screened in duplicate at a final concentration of 100 μM per well (1% DMSO). The antibacterial single-concentration HTS and dose–response susceptibility assays were conducted in 384-well plates, with bacterial cell density measured by optical density at 600 nm (OD600). Compounds were distributed in duplicate on separate 384-well microtiter plates using an Echo 550® acoustic [compound left out] handler (Beckman Coulter™, Indianapolis, IN) and inoculated with bacteria to a final concentration of 10^6 CFU/mL, with a total assay volume of 25.25 μL. Plates were incubated with shaking for 24 h at 37 °C. Bacterial growth was measured by reading the OD600 using an EnVision™ microplate reader (Revvity, Waltham, MA). The activity of the compounds was expressed as the percentage of bacterial growth inhibition, and it was calculated using the following normalization: %Inhibition=100×1−(TfSample−TOSample)−(TfBlank−TOBlank)/(TfGrowth−TOGrowth)−(TfBlank−TOBlank) Where, T0 Sample is the absorbance of the strain growth in the presence of compound measured at time zero, Tf Sample is the absorbance of the strain growth in the presence of compound measured at final time, T0 Growth is the absorbance of the strain growth in the absence of compound measured at time zero, Tf Growth is the absorbance of the strain growth in the absence of compound measured at final time, T0 Blank is the absorbance of the broth medium (blank) measured at time zero, Tf Blank: the absorbance of the broth medium (blank) measured at final time; T0 is Time at 0 h and Tf is Time at 24 h. We developed and validated a high-throughput screen assay using 2464 bioactive compounds from the EU-OPENSCREEN pilot library, dispensed in 384-well plates at 100 μM final concentration, and the A. baumannii Ab ATCC 17978 and E. coli ATCC 25922 strains, as well as their respective MDR strains (Ab186 and MCR1^+) (Fig. 1A). We identified 33 compounds ([…] of the total compounds) with inhibitory activity of ≥70% against at least one or both MDR strains of Ab186 and E. coli MCR1^+. […] This compound was active against the Ab ATCC 17978 and E. coli ATCC 25922 strains, with AC50 values of 23.57 μM and 46.86 μM, respectively (Fig. 1C).

The subject of experiment [3] is T3, A. baumannii Ab ATCC 17978.
T3 construct: ATCC 17978
Description: microbe, parasite or virus in culture. More on the design: species or system A. baumannii ATCC 17978; Bacterial growth inhibition, OD600, dose-response in 384-well plates, AC50. The note with it: Acinetobacter baumannii, ATCC17978, 24 h. On the procedure:
as §1

T1 sequence (A3M5Y1 whole entry): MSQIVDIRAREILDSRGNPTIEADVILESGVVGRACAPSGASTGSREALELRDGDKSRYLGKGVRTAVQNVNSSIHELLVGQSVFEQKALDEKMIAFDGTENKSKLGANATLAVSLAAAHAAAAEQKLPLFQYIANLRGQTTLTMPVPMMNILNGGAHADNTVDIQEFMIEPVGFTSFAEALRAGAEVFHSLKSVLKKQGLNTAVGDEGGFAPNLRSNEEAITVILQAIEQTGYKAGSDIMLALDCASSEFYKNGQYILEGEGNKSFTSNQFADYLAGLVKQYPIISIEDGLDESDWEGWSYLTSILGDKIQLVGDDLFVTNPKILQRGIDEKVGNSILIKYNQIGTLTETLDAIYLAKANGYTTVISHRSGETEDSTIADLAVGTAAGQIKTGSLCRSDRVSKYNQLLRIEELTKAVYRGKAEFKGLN

Consider `NCCOCCOCCNC(=O)Cc1ccc(Nc2nc(NCc3ccc(F)cc3)nc(NCC3CCCCC3)n2)cc1` [ENOblock], for which, in experiment [1], the Kd came to 2900 ± 780 nM.
Turning to `O=[N+]([O-])c1ccc(Sc2cccc[n+]2[O-])c2nonc12` [EOS100077, NSC228155], the values for the half-maximal activity concentration (AC50) in experiment [2] and in experiment [3] were 19.1 µM and 32 µM, respectively.
Take `C[C@H]1CO[C@@H]2Cn3cc(C(=O)NCc4ccc(F)cc4F)c(=O)c(O)c3C(=O)N12` [EOS100194, CABOTEGRAVIR]: the AC50 in experiment [3] worked out at 113 µM.
Consider `COc1cc(/C=C/C(O)=C/C(=O)/C=C/c2ccc(O)cc2)ccc1O` [EOS100220, DEMETHOXYCURCUMIN], for which the results for the AC50 in experiment [2] and in experiment [3] were 56.1 µM and 51 µM, respectively.
For `NC(=S)N/N=C/c1ncccc1N` [EOS100248, TRIAPINE], in that order: 101 µM and 65.7 µM.
For `Cc1nc2c(=O)n(C)c(=O)nc-2n(C)n1` [EOS100293, 3-METHYLTOXOFLAVIN], in that order: 9.33 µM and 14.3 µM.
Turning to `Oc1c(Cl)cc(Cl)c(Cl)c1Cc1c(O)c(Cl)cc(Cl)c1Cl` [EOS100333, HEXACHLOROPHENE], the AC50 in experiment [2] turned out to be 37.3 µM; in experiment [3] it was 4.77 µM.
The matching figures for `Oc1c(I)cc(I)c2cccnc12` [EOS100343, DIIODOHYDROXYQUINOLINE]: 55.1 µM and 62.8 µM.
As for `Cc1c2ccncc2c(C)c2c1[nH]c1ccccc12` [EOS100555, ELLIPTICINE], the AC50 in experiment [2] stood at 64 µM; in experiment [3] it was 48.9 µM.
For `Cc1ccc2c(Cl)cc(Cl)c(O)c2n1` [EOS100722, CHLORQUINALDOL], in that order: 20.4 µM and 42.2 µM.
For `CC(C)c1cccc(=O)c(O)c1` [EOS100813, HINOKITIOL], in that order: 48.3 µM and 41 µM.
`CCN1CCN(C(c2ccc(C(F)(F)F)cc2)c2ccc3cccnc3c2O)CC1` (centres unmarked) [EOS100820, ML311]: the AC50 in experiment [2] amounted to 82.9 µM; in experiment [3], 32.7 µM.
Turning to `Oc1cccc2cccnc12` [EOS100874, OXYQUINOLINE], the AC50 is 173 µM in experiment [2] and 71.9 µM in experiment [3].
As for `COc1ccc(Cc2cnc(N)nc2N)cc1OC` [EOS100884, DIAVERIDINE], half-maximal activity in experiment [2] (AC50) was put at 1.26 µM.
The same measure, in the same setting: next, `C=C1c2cccc(O)c2C(=O)C2=C(O)[C@]3(O)C(=O)C(C(N)=O)=C(O)[C@@H](N(C)C)[C@@H]3[C@@H](O)[C@H]12` [EOS100925, METHACYCLINE HYDROCHLORIDE]: 95 µM.
Turning to `Oc1c(Cl)cc(Cl)c2cccnc12` [EOS100951, CHLOROXINE], the AC50 in experiment [2] worked out at 10.1 µM; in experiment [3] it was 7.47 µM.
For `NCCOCCOCCNC(=O)Cc1ccc(Nc2nc(NCc3ccc(F)cc3)nc(NCC3CCCCC3)n2)cc1` [EOS100979, AP-III-A4(ENOBLOCK)], in that order: 46.9 µM and 23.6 µM.
Take `Cn1cc(C2=C(c3cn(CCCSC(=N)N)c4ccccc34)C(=O)NC2=O)c2ccccc21` [EOS101001, BISINDOLYLMALEIMIDE IX]: the results for the AC50 in experiment [2] and in experiment [3] were 109 µM and 48.9 µM, respectively.
For `CC(C)(Cc1ccc2ccccc2c1)NC[C@@H](O)COc1cccc(Cl)c1C#N` [EOS101044, NPS-2143], in that order: 47.6 µM and 27.2 µM.
As to `c1ccc2c(c1)[I+]c1ccccc1-2` [EOS101209, DIPHENYLENEIODONIUM], the AC50 amounted to 2.02 µM in experiment [2] and 3.09 µM in experiment [3].
In the case of `CC(C)C[C@H](NC(=O)[C@H](CCc1ccccc1)NC(=O)CN1CCOCC1)C(=O)N[C@@H](Cc1ccccc1)C(=O)N[C@@H](CC(C)C)C(=O)[C@@]1(C)CO1` [EOS101232, CARFILZOMIB], the activity in experiment [2] was half-maximal at 31.4 µM (AC50).
Turning to `C[C@@H]1CCO[C@H]2Cn3cc(C(=O)NCc4ccc(F)cc4F)c(=O)c(O)c3C(=O)N12` [EOS101330, DOLUTEGRAVIR], the AC50 in experiment [3] was determined as 21.9 µM.
`CCc1nc(N)nc(N)c1-c1ccc(Cl)cc1` [EOS101458, PYRIMETHAMINE] showed an AC50 in experiment [2] of 129 µM.
Regarding `COc1cc(NCc2ccc3nc(N)nc(N)c3c2C)cc(OC)c1OC` [EOS101467, TRIMETREXATE], the AC50 came to 1.99 µM in experiment [2] and 24.1 µM in experiment [3].
`O=S(=O)(NCCNC/C=C/c1ccc(Br)cc1)c1cccc2cnccc12` [EOS101763, H-89 DIHYDROCHLORIDE]: the activity in experiment [2] was half-maximal at 65.9 µM (AC50).
As for `Oc1c(Cl)cc(Cl)cc1Sc1cc(Cl)cc(Cl)c1O` [EOS101771, BITHIONOL], the AC50 in experiment [2] worked out at 42.9 µM; in experiment [3] it was 14.6 µM.
For `C/C(=N\N=C(N)N)c1cc(NC(=O)CCCCCCCCC(=O)Nc2cc(/C(C)=N/N=C(N)N)cc(/C(C)=N/N=C(N)N)c2)cc(/C(C)=N/N=C(N)N)c1` [EOS101827, SEMAPIMOD], the AC50 was found to be 7.07 µM in experiment [2] and 23.2 µM in experiment [3].
The matching figures for `[O-][n+]1ccccc1S` [EOS101921, PYRITHIONE]: 17.8 µM and 33.9 µM.
For `CCN1/C(=C/c2ccc3ccccc3[n+]2CC)C=Cc2ccccc21` [EOS102018, DECYNIUM 22], the results for the AC50 in experiment [2] and in experiment [3] were 92.9 µM and 54.3 µM, respectively.
In turn, `CN(C)c1ccc(C(=C2C=CC(=[N+](C)C)C=C2)c2ccc(N(C)C)cc2)cc1` [EOS102093, GENTIAN VIOLET] came in with an AC50 in experiment [3] of 32.7 µM.
Regarding `c1ccc(-c2cccc(-c3ccccn3)n2)nc1` [EOS102213, TERPYRIDINE], the AC50 in experiment [2] came to 52.3 µM; in experiment [3], 13.1 µM.

By Kd is commonly meant the concentration at which binding is half-saturated. A higher Kd goes with weaker binding. As a reminder, the AC50 is the concentration at which the activity in the assay is half-maximal.
